This assay addresses T1, USP19 (Homo sapiens, UniProt O94966).
T1 sequence (O94966 1-1318): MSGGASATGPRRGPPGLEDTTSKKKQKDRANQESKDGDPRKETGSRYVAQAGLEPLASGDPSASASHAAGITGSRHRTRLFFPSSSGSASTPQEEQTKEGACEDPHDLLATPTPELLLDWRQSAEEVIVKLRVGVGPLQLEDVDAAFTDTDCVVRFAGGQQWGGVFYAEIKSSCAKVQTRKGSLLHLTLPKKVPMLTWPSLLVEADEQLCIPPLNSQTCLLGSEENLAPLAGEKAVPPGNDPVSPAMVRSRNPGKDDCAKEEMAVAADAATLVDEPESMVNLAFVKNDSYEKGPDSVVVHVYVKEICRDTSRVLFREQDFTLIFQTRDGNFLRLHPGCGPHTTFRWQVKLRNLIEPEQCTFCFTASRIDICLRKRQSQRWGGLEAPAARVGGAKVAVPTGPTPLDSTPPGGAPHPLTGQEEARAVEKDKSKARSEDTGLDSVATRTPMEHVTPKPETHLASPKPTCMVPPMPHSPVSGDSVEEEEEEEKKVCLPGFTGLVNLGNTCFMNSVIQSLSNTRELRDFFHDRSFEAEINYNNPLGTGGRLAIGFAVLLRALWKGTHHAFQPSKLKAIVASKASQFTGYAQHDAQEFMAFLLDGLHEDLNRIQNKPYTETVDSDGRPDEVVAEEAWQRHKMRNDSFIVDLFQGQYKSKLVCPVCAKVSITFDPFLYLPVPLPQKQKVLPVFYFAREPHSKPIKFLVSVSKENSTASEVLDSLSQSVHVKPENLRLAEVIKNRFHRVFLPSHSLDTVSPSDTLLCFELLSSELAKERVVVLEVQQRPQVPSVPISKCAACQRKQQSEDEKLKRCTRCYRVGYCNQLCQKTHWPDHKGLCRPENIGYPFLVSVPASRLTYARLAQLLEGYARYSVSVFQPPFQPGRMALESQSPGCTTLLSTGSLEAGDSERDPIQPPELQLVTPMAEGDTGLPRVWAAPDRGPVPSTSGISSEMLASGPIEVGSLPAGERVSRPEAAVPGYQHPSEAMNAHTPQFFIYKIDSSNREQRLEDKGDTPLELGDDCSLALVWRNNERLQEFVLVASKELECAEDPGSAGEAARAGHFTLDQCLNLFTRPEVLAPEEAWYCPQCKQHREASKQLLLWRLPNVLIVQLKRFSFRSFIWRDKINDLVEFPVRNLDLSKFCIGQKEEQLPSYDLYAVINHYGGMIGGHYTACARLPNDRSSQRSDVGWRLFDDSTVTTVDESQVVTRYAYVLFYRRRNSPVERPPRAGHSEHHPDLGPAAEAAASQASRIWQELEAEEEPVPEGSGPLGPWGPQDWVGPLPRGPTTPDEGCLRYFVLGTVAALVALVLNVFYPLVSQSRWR
The experiment in a line: USP19 fluorescence polarisation (FP) homogeneous assay. The format is biochemical. Conditions: Ubiquitin-Lys-TAMRA substrate, full-length USP19 2.5 nM, average of at least two duplicate experiments. The arrangement: Full-length USP19 was purchased from Boston Biochem (E-576); purchased Boston Biochem E-576. How it is done: Unless otherwise stated, all other reagents were purchased from Sigma. Enzymatic reactions were conducted in black flat bottom polystyrene 384-well plates (Nunc) and 30 μL total volume. […] Inhibitors were stored as 10 mM DMSO stocks in an inert environment (low humidity, dark, low oxygen, room temperature) using the Storage Pod System and serial dilutions were prepared in buffer just prior to the assay (from 200 μM to 2 μM, 8-18 data point curve). Following incubation at RT for 30 min, the enzymatic reactions were initiated by dispensing the Ub substrate (500 nM, 10 μL). FP was measured every 15 min over a period of 90 min (within the linear range of the assay) using a Synergy 4 plate reader (BioTek) exciting at 530 nm and measuring the amount of parallel and perpendicular light at 575 nm. The FP signal was subsequently normalised to the no compound control.
By IC50 is commonly meant the concentration that inhibits the measured activity by half. In the case of `C[C@H](CC1CCCCC1)C(=O)N1CCC(O)(Cn2cnc(-c3cccc(CO)c3)cc2=O)C(C)(C)C1` (some centres unmarked) [Example 138], the half-maximal inhibitory concentration (IC50) is less than 500 nM.

Take `C[C@H](CC1CCCCC1)C(=O)N1CCC(O)(Cn2cnc(-c3ccc(CO)cc3)cc2=O)C(C)(C)C1` (stereo partly drawn) [Example 139, 3-((1-((R)-3-Cyclohexyl-2-methylpropanoyl)-4-hydroxy-3,3-dimethylpiperidin-4-yl)methyl)-6-(4-(hydroxymethyl)phenyl)pyrimidin-4(3H)-one]: the IC50 was less than 500 nM.

With `C[C@H](CC1CCCCC1)C(=O)N1CCC(O)(Cn2cnc(-c3ccccc3CN)cc2=O)C(C)(C)C1` (some centres unmarked) [Example 141], the IC50 is less than 500 nM.

For the compound `C[C@H](CC1CCCCC1)C(=O)N1CCC(O)(Cn2cc(C(=O)N(C)C)c(Cl)cc2=O)C2(CCCC2)C1` (stereo partly drawn) [Example 144, 4-Chloro-1-((7-((R)-3-cyclohexyl-2-methylpropanoyl)-10-hydroxy-7-azaspiro[4.5]decan-10-yl)methyl)-N,N-dimethyl-6-oxo-1,6-dihydropyridine-3-carboxamide], the IC50 was less than 500 nM.

Consider `C[C@H](CC1CCCCC1)C(=O)N1CCC(O)(Cn2cc(C(=O)N(C)C)c(N(C)C)cc2=O)C2(CCCC2)C1` (stereo partly drawn) [Example 145, 1-((7-((R)-3-Cyclohexyl-2-methylpropanoyl)-10-hydroxy-7-azaspiro[4.5]decan-10-yl)methyl)-4-(dimethylamino)-N,N-dimethyl-6-oxo-1,6-dihydropyridine-3-carboxamide], for which the IC50 is less than 500 nM.

In the case of `C[C@H](CC1CC1)C(=O)N1CCC(O)(Cn2cc(C(=O)N(C)C)c(-c3ccccc3)cc2=O)C2(CCCC2)C1` (stereo partly drawn) [Example 149, 1-((7-((R)-3-Cyclopropyl-2-methylpropanoyl)-10-hydroxy-7-azaspiro[4.5]decan-10-yl)methyl)-N,N-dimethyl-6-oxo-4-phenyl-1,6-dihydropyridine-3-carboxamide], the IC50 is less than 500 nM.

In the case of `CN(C)C(=O)c1cn(C[C@]2(O)CCN(C(=O)[C@H](CO)CC3CCCCC3)CC2(C)C)c(=O)cc1-c1ccccc1` [Example 152, 1-(((S)-1-((S)-3-Cyclohexyl-2-(hydroxymethyl)propanoyl)-4-hydroxy-3,3-dimethylpiperidin-4-yl)methyl)-N,N-dimethyl-6-oxo-4-phenyl-1,6-dihydropyridine-3-carboxamide], the IC50 was less than 500 nM.

For `CN(C)C(=O)c1cn(C[C@@]2(O)CCN(C(=O)[C@H](CO)CC3CCCCC3)CC2(C)C)c(=O)cc1-c1ccccc1` [Example 153, 1-(((R)-1-((S)-3-Cyclohexyl-2-(hydroxymethyl)propanoyl)-4-hydroxy-3,3-dimethylpiperidin-4-yl)methyl)-N,N-dimethyl-6-oxo-4-phenyl-1,6-dihydropyridine-3-carboxamide], the half-inhibitory concentration (IC50) lay within 5000 to 50000 nM.

`C[C@H](CC1CCCCC1)C(=O)N1CCC(O)(Cn2cc(C(=O)N(C)C)c(-c3ccsc3)cc2=O)C2(CCCC2)C1` (stereo partly drawn) [Example 155, 1-((7-((R)-3-Cyclohexyl-2-methylpropanoyl)-10-hydroxy-7-azaspiro[4.5]decan-10-yl)methyl)-N,N-dimethyl-6-oxo-4-(thiophen-3-yl)-1,6-dihydropyridine-3-carboxamide]: the IC50 was less than 500 nM.

For the compound `C[C@H](CC1CCCCC1)C(=O)N1CCC(O)(Cn2cc(C(=O)N(C)C)c(-c3cccc(CO)c3)cc2=O)C2(CCCC2)C1` (stereo partly drawn) [Example 156, 1-((7-((R)-3-Cyclohexyl-2-methylpropanoyl)-10-hydroxy-7-azaspiro[4.5]decan-10-yl)methyl)-4-(3-(hydroxymethyl)phenyl)-N,N-dimethyl-6-oxo-1,6-dihydropyridine-3-carboxamide], the IC50 is less than 500 nM.

`CN(C)C(=O)c1cn(CC2(O)CCN(C(=O)C(O)CC3CCCCC3)CC23CCCC3)c(=O)cc1-c1ccccc1` (centres unmarked) [Example 157, 1-((7-(3-Cyclohexyl-2-hydroxypropanoyl)-10-hydroxy-7-azaspiro[4.5]decan-10-yl)methyl)-N,N-dimethyl-6-oxo-4-phenyl-1,6-dihydropyridine-3-carboxamide]: the IC50 was less than 500 nM.

For the compound `COC[C@H](CC1CCCCC1)C(=O)N1CC[C@@](O)(Cn2cc(C(=O)N(C)C)c(-c3ccccc3)cc2=O)C(C)(C)C1` [Example 160, 1-(((S)-1-((S)-3-Cyclohexyl-2-(methoxymethyl)propanoyl)-4-hydroxy-3,3-dimethylpiperidin-4-yl)methyl)-N,N-dimethyl-6-oxo-4-phenyl-1,6-dihydropyridine-3-carboxamide], the IC50 is less than 500 nM.

With `C[C@H](CC1CCCCC1)C(=O)N1CCC(O)(Cn2cc(C(=O)N(C)C)c(-c3ccc(CO)cc3)cc2=O)C2(CCCC2)C1` (stereo partly drawn) [Example 162, 1-((7-((R)-3-Cyclohexyl-2-methylpropanoyl)-10-hydroxy-7-azaspiro[4.5]decan-10-yl)methyl)-4-(4-(hydroxymethyl)phenyl)-N,N-dimethyl-6-oxo-1,6-dihydropyridine-3-carboxamide], the IC50 is less than 500 nM.

Regarding `CN(C)C(=O)c1cn(C[C@]2(O)CCN(C(=O)[C@H](CCO)CC3CCCCC3)CC2(C)C)c(=O)cc1-c1ccccc1` [Example 164, 1-(((S)-1-((S)-2-(Cyclohexylmethyl)-4-hydroxybutanoyl)-4-hydroxy-3,3-dimethylpiperidin-4-yl)methyl)-N,N-dimethyl-6-oxo-4-phenyl-1,6-dihydropyridine-3-carboxamide], the IC50 was less than 500 nM.

Consider `CN(C)C(=O)c1cn(C[C@]2(O)CCN(C(=O)[C@H](CO)CC3CCC3)CC2(C)C)c(=O)cc1-c1ccccc1` [Example 166, 1-(((S)-1-((S)-3-Cyclobutyl-2-(hydroxymethyl)propanoyl)-4-hydroxy-3,3-dimethylpiperidin-4-yl)methyl)-N,N-dimethyl-6-oxo-4-phenyl-1,6-dihydropyridine-3-carboxamide], for which the IC50 was less than 500 nM.

As to `CN(C)C(=O)c1cn(C[C@@]2(O)CCN(C(=O)[C@H](CO)CC3CCC3)CC2(C)C)c(=O)cc1-c1ccccc1` [Example 167, 1-(((R)-1-((S)-3-Cyclobutyl-2-(hydroxymethyl)propanoyl)-4-hydroxy-3,3-dimethylpiperidin-4-yl)methyl)-N,N-dimethyl-6-oxo-4-phenyl-1,6-dihydropyridine-3-carboxamide], the IC50 is 5000 to 50000 nM.

Take `C[C@H](CC1CCCCC1)C(=O)N1CCC(O)(Cn2cc(C(=O)N3CCOCC3)c(-c3ccccc3)cc2=O)C(C)(C)C1` (some centres unmarked) [Example 168]: the IC50 was less than 500 nM.

In the case of `CC(=O)N1CCN(C(=O)c2cn(CC3(O)CCN(C(=O)[C@H](C)CC4CCCCC4)CC3(C)C)c(=O)cc2-c2ccccc2)CC1` (some centres unmarked) [Example 169], the half-maximal inhibitory concentration (IC50) is less than 500 nM.

Consider `C[C@H](CC1CCCCC1)C(=O)N1CCC(O)(Cn2cc(C(=O)N3CCN(C)CC3)c(-c3ccccc3)cc2=O)C(C)(C)C1` (stereo partly drawn) [Example 170, 1-((1-((R)-3-Cyclohexyl-2-methylpropanoyl)-4-hydroxy-3,3-dimethylpiperidin-4-yl)methyl)-5-(4-methylpiperazine-1-carbonyl)-4-phenylpyridin-2(1H)-one], for which the IC50 is less than 500 nM.

On to `CN(C)C(=O)c1cn(CC2(O)CCN(C(=O)[C@@H]3C[C@@H]3c3ccccc3)CC23CCCC3)c(=O)cc1-c1ccccc1` (stereo partly drawn) [Example 174, 1-((10-Hydroxy-7-((1R,2S)-2-phenylcyclopropane-1-carbonyl)-7-azaspiro[4.5]decan-10-yl)methyl)-N,N-dimethyl-6-oxo-4-phenyl-1,6-dihydropyridine-3-carboxamide], for which the IC50 was less than 500 nM.

The values are drawn from US20220016115A1, “USP19 INHIBITORS FOR USE IN THERAPY” (ALMAC DISCOVERY LIMITED, priority 2018, published 2022).
